This note sets out measurements from ChEMBL document CHEMBL6114991, “Design, synthesis, and biological evaluation of novel quinoline carboxylic acid based styryl/alkyne hybrid molecule as a potent anti-adipogenic and antidyslipidemic agent via activation of Wnt/β-catenin pathway” (Eur J Med Chem, 2025).

In series [1] the test system is 3T3-L1. In words: Anti-adipogenic activity in mouse 3T3-L1 cells assessed as change in lipid content at 10 uM measured at 5 to 7 days. It is filed as functional, cell-based. Particulars: time 5-7 day.
Series [2] deals with 3T3-L1. In words: Inhibition of adipogenesis in mouse 3T3-L1 cells assessed as downregulation of FABP4 expression at 10 uM measured at upto 3 days by immunoblotting analysis. It is filed as functional, cell-based. As to conditions: time <= 3.0 day. (In general: Immunoblotting shows a protein as a band on a membrane.)
In series [3] the test system is 3T3-L1. As to the kind of experiment: […] of Wnt/beta-catenin signalling in mouse 3T3-L1 cells assessed as increase in GSK3beta level at 10 uM by immunoblotting analysis. The format is cell-based.
Series [4] relates to 3T3-L1. As to the kind of experiment: Induction of cell cycle arrest in mouse 3T3-L1 cells assessed as reduction in cyclin D3 level at 10 uM incubated for 16 to 24 hrs by immunoblotting analysis. It is filed as functional, cell-based. As to conditions: time 16-24 hrs.
In series [5] the test system is 3T3-L1. As to the kind of experiment: Cytotoxicity against mouse 3T3-L1 cells assessed as cell viability upto 100 uM incubated for 48 hrs by MTT assay. The format is toxicity, cell-based. Particulars: 3t3-l1, 48 h. (Formazan colour is commonly taken as a measure of viable cells.)
Series [6] has as its system 3T3-L1. As to the kind of experiment: Inhibition of adipogenesis in mouse 3T3-L1 cells assessed as downregulation of FASN expression at 10 uM measured at upto 7 days by immunoblotting analysis. It is filed as functional, cell-based. Particulars: time <= 7.0 day.
Series [7] deals with 3T3-L1. As to the kind of experiment: Induction of cell cycle arrest in mouse 3T3-L1 cells assessed as reduction in CDK4 level at 10 uM incubated for 16 to 24 hrs by immunoblotting analysis. The format is functional, cell-based. Particulars: time 16-24 hrs.
Series [8] is described as follows: Cmax in Golden Syrian hamster at 100 mg/kg, po measured upto 24 hrs by LC-MS/MS analysis. The format is ADME, organism-based, Mesocricetus auratus. Particulars: in vivo.
The test system of series [9] is 3T3-L1. In words: Cytotoxicity against mouse 3T3-L1 cells assessed as cell viability upto 50 uM incubated for 48 hrs by MTT assay. The format is toxicity, cell-based. As to conditions: 3t3-l1, 48 h.
The nature of series [10]: Half life in Golden Syrian hamster at 100 mg/kg, po measured upto 24 hrs by LC-MS/MS analysis. It is filed as ADME, organism-based, Mesocricetus auratus. As to conditions: in vivo.
Series [11] has as its system 3T3-L1. As to the kind of experiment: Inhibition of adipogenesis in mouse 3T3-L1 cells assessed as downregulation of PPARgamma expression at 10 uM measured at upto 3 days by immunoblotting analysis. The format is functional, cell-based. As to conditions: time <= 3.0 day.
Series [12] is described as follows: Toxicity in Golden Syrian hamster assessed as reduction in liver weight at 100 mg/kg, po administered for 7 days. The format is organism-based, Mesocricetus auratus. As to conditions: in vivo, 168 h, time 7 day.
Series [13] relates to 3T3-L1. As to the kind of experiment: Anti-adipogenic activity in mouse 3T3-L1 cells assessed as suppression of adipogenesis at 20 uM measured for 72 hrs by oil red O staining based analysis. It is filed as functional.
In series [14] the test system is 3T3-L1. As to the kind of experiment: Anti-adipogenic activity in mouse 3T3-L1 cells assessed as change in lipid content at 10 uM measured at 3 to 7 days. It is filed as functional, cell-based. As to conditions: time 3-7 day.
The subject of series [15] is 3T3-L1. In words: Anti-adipogenic activity in mouse 3T3-L1 cells assessed as change in lipid content at 10 uM measured at 3 to 5 days. The format is functional, cell-based. As to conditions: time 3-5 day.

Active and inactive are the calls of the source. The calls are words filed in the database; no cut-off is given here.

For orientation: Cmax means the highest concentration seen after dosing. The half-life is the time in which the quantity being followed falls by half. `Cc1ccc(/C=C/c2ccc(-c3cc(C(=O)O)c4cc(F)ccc4n3)cc2)cc1`: the outcome with 3T3-L1 [1], with 3T3-L1 [4], in the series on 3T3-L1 [7], in the series with 3T3-L1 [14] and with 3T3-L1 [15] was Active. The inhibition entry in the series on 3T3-L1 [2], in the series on 3T3-L1 [3], with 3T3-L1 [6] and in the series on 3T3-L1 [11] was “Active” in each case. The Activity result is “Toxic” with 3T3-L1 [5], “Non-toxic” with 3T3-L1 [9], “Non-toxic” in series [12] and 70% with 3T3-L1 [13]. Moreover, in [8], the peak concentration (Cmax) worked out at 17700 ng/mL. In series [10], this compound showed a half-life of 3.64 h.
